Data as given in PMC12892976, “Alkylation-based optimization of antifungal FPPS inhibitors yields a potent, broad-spectrum lipophilic zoledronate derivative” (mBio, 2025).
≈ marks a conversion by molar mass, not a printed value.

Legend:
[1] = system: Cryptococcus bacillisporus; assay: MIC broth microdilution (CLSI); format: cell-based; settings: Cryptococcus bacillisporus NIH179
Method: (§2) Antifungal susceptibility was determined by broth microdilution according to the CLSI guidelines described in M27-Ed4 ([16]).

[2] = system: Candida dubliniensis; assay: checkerboard drug interaction (FICI, MICc); format: cell-based;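 also: simplified diagonal checkerboard screen pairing antifungals with FPPS inhibitors, FICI calculated under the Loewe additivity model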
Method: (§3) Drug interactions between antifungals and FPPS inhibitors were investigated using a simplified checkerboard diagonal screening method ([45]). […] FICIs were determined according to the Loewe additivity model ([17]).

[3] = system: Aspergillus terreus; assay: MIC broth microdilution (CLSI); format: cell-based; settings: Aspergillus terreus 75-16-089-2500
Method: as §2

[4] = system: Aspergillus parafelis; assay: checkerboard drug interaction (FICI, MICc);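 also: simplified diagonal checkerboard screen pairing antifungals with FPPS inhibitors, FICI calculated under the Loewe additivity model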
Method: as §3

[5] = system: Lomentospora prolificans; assay: checkerboard drug interaction (FICI, MICc);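 also: simplified diagonal checkerboard screen pairing antifungals with FPPS inhibitors, FICI calculated under the Loewe additivity model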
Method: as §3

[6] = system: Pichia kudriavzevii; assay: MIC broth microdilution (CLSI); format: cell-based; settings: Pichia kudriavzavii ATCC 6258
Method: (§4) Antifungal susceptibility was determined by broth microdilution according to the CLSI guidelines described in M27-Ed4 ([16]). […] MFC was determined by back-plating drug-treated cultures from MIC broths onto SDA plates. The MFC was defined as the lowest concentration from which no colonies could be cultured.

[7] = system: Cryptococcus gattii; assay: checkerboard drug interaction (FICI, MICc); format: cell-based;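 also: simplified diagonal checkerboard screen pairing antifungals with FPPS inhibitors, FICI computed under the Loewe additivity model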
Method: as §3

[8] = system: Aspergillus lentulus; assay: checkerboard drug interaction (FICI, MICc); format: cell-based;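 also: simplified diagonal checkerboard screen pairing antifungals with FPPS inhibitors, with the interaction index calculated under the Loewe additivity model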
Method: as §3

[9] = system: Candida auris; assay: checkerboard drug interaction (FICI, MICc); format: cell-based;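 also: simplified diagonal checkerboard screen pairing antifungals with FPPS inhibitors, with FICI computed under the Loewe additivity model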
Method: as §3

[10] = system: Aspergillus lentulus; assay: MIC broth microdilution (CLSI); format: cell-based; settings: Aspergillus lentulus DTO 341-G7
Method: as §2

[11] = system: Rhizopus oryzae; assay: checkerboard drug interaction (FICI, MICc); format: cell-based;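 also: simplified diagonal checkerboard screen pairing antifungals with FPPS inhibitors, FICI calculated under the Loewe additivity model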
Method: as §3

[12] = system: Aspergillus felis; assay: checkerboard drug interaction (FICI, MICc); format: cell-based
Method: as §3

[13] = system: Aspergillus parafelis; assay: MIC broth microdilution (CLSI); format: cell-based; settings: Aspergillus parafelis DTO 341-F2
Method: as §2

[14] = system: Cryptococcus deneoformans; assay: MIC broth microdilution (CLSI); format: cell-based; settings: Cryptococcus deneoformans JEC21
Method: as §2

[15] = system: Microsporum canis; assay: MIC broth microdilution (CLSI); settings: Microsporum canis R-232
Method: as §2

[16] = system: Cryptococcus tetragattii; assay: MIC broth microdilution (CLSI); format: cell-based; settings: Cryptococcus tetragattii WM779
Method: as §2

[17] = system: Trichophyton interdigitale; assay: MIC broth microdilution (CLSI); format: cell-based; settings: Trichophyton interdigitale R-234
Method: as §2

[18] = system: Cryptococcus deneoformans; assay: checkerboard drug interaction (FICI, MICc); format: cell-based
Method: as §3

[19] = system: Candida auris; assay: MIC broth microdilution (CLSI); format: cell-based; settings: Candida auris CDC-0384
Method: as §2

[20] = system: Candida parapsilosis; assay: MIC broth microdilution (CLSI); format: cell-based; settings: Candida parapsilosis ATCC 22018
Method: as §4

[21] = system: Trichophyton soudanense; assay: checkerboard drug interaction (FICI, MICc); format: cell-based;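 also: simplified diagonal checkerboard screen pairing antifungals with FPPS inhibitors, FICI computed under the Loewe additivity model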
Method: as §3

[22] = system: Fusarium oxysporum; assay: checkerboard drug interaction (FICI, MICc); format: cell-based
Method: as §3

[23] = system: Trichophyton rubrum biofilms; assay: biofilm XTT reduction assay (SIC80, SFICI); format: cell-based; settings: biofilm, agent alone; Trichophyton rubrum 213
Method: (§5) Biofilms of Cryptococcus were seeded in DMEM, and all other species were seeded in RPMI-1640.

[24] = system: Candida albicans biofilms; assay: biofilm XTT reduction assay (SIC80, SFICI); settings: agent alone, Candida albicans SC5314
Method: as §5

[25] = system: Saccharomyces cerevisiae biofilms; assay: biofilm XTT reduction assay (SIC80, SFICI); format: cell-based; settings: FLC:10-ZOL combination, Saccharomyces cerevisiae
Method: as §5

[26] = system: Aspergillus flavus biofilms; assay: biofilm XTT reduction assay (SIC80, SFICI); format: cell-based
Text: (§1) […]. […] […].

[27] = system: Candida glabrata biofilms; assay: biofilm XTT reduction assay (SIC80, SFICI); format: cell-based
Text: as §1

[28] = system: Aspergillus fumigatus biofilms; assay: biofilm XTT reduction assay (SIC80, SFICI); format: cell-based
Text: as §1

Row | SMILES | MIC / MEC [1] [µg/mL] | antifungal MICc ([2]; in combination with 10-ZOL) | antifungal MICc ([2]; in combination with ZOL) | MIC / MEC [3] [µg/mL] | antifungal MICc ([4]; in combination with 10-ZOL) | antifungal MICc ([5]; in combination with ZOL) | MIC / MEC [6] [µg/mL] | antifungal MICc ([7]; in combination with 10-ZOL) | antifungal MICc ([7]; in combination with ZOL) | antifungal MICc ([8]; in combination with 10-ZOL) | antifungal MICc ([8]; in combination with ZOL) | antifungal MICc ([9]; in combination with 10-ZOL) | antifungal MICc ([9]; in combination with ZOL) | antifungal MICc ([11]; in combination with 10-ZOL) | antifungal MICc ([12]; in combination with 10-ZOL) | MIC / MEC [14] [µg/mL] | MIC / MEC [16] [µg/mL] | antifungal MICc ([18]; in combination with 10-ZOL) | antifungal MICc ([18]; in combination with ZOL) | MIC / MEC [20] [µg/mL] | also measured
1 | CC[C@H](C)C[C@H](C)CCCCCCCCC(=O)N[C@H]1C[C@@H](O)[C@@H](NCCN)NC(=O)[C@@H]2[C@@H](O)CCN2C(=O)[C@H]([C@H](O)CCN)NC(=O)[C@H]([C@H](O)[C@@H](O)c2ccc(O)cc2)NC(=O)[C@@H]2C[C@@H](O)CN2C(=O)[C@H]([C@@H](C)O)NC1=O [CAS, caspofungin] | 8 (≈ 7.32 µM) | 0.063 | 0.01 | 2 (≈ 1.83 µM) | 0.5 | 64 | 1 (≈ 0.915 µM) | 2 | 16 | 4 | 2 | 0.5 | 4 | 128 | 0.5 | 16 (≈ 14.6 µM) | 8 (≈ 7.32 µM) | 2 | 8 | 1 (≈ 0.915 µM) | antifungal MICc ([4]; in combination with ZOL): 0.065; antifungal MICc ([5]; in combination with 10-ZOL): 128; MIC / MEC [10]: 4 µg/mL (≈ 3.66 µM); antifungal MICc ([11]; in combination with ZOL): 4; antifungal MICc ([12]; in combination with ZOL): 0.5; MIC / MEC [13]: 0.13 µg/mL (≈ 0.119 µM); MIC / MEC [15]: 0.25 µg/mL (≈ 0.229 µM); MIC / MEC [17]: 0.25 µg/mL (≈ 0.229 µM); MIC / MEC [19]: 4 µg/mL (≈ 3.66 µM); antifungal MICc ([21]; in combination with 10-ZOL): 0.5; antifungal MICc ([21]; in combination with ZOL): 1; antifungal MICc ([22]; in combination with 10-ZOL): 128; antifungal MICc ([22]; in combination with ZOL): 64
2 | OC(Cn1cncn1)(Cn1cncn1)c1ccc(F)cc1F [FLC, fluconazole] | 1 (≈ 3.27 µM) | 0.125 | 0.03125 | 64 (≈ 209 µM) | 4 | 512 | 32 (≈ 104 µM) | 1 | 0.25 | 4 | 64 | 64 | 32 | 32 | 4 | 0.5 (≈ 1.63 µM) | 4 (≈ 13.1 µM) | 0.25 | 0.125 | 2 (≈ 6.53 µM) | SIC80 [23]: 2,048 µg/mL; SIC80 [24]: 512 µg/mL; SICc [25]: 64 µg/mL; SICc ([26]; FLC:10-ZOL combination, Aspergillus flavus): 512 µg/mL; SIC80 ([26]; agent alone, Aspergillus flavus ATCC 204304): 1,024 µg/mL; SICc ([27]; FLC:10-ZOL combination, Candida glabrata): 512 µg/mL; SIC80 ([27]; agent alone, Candida glabrata CBS138): >2,048 µg/mL; SICc ([28]; FLC:10-ZOL combination, Aspergillus fumigatus): 512 µg/mL; SIC80 ([28]; agent alone, Aspergillus fumigatus ATCC 204305): >2,048 µg/mL; antifungal MICc ([21]; in combination with 10-ZOL): 4; antifungal MICc ([21]; in combination with ZOL): 64; antifungal MICc ([22]; in combination with ZOL): 64
3 | C[C@@H](c1ncncc1F)[C@](O)(Cn1cncn1)c1ccc(F)cc1F [VOR] | 0.06 (≈ 0.172 µM) | 0.033 | 0.0125 | 0.25 (≈ 0.716 µM) | 2 | 16 | 0.5 (≈ 1.43 µM) | 0.033 | 0.06 | 0.5 | 0.5 | 0.25 | 1 | 8 | 0.5 | 0.06 (≈ 0.172 µM) | 0.13 (≈ 0.372 µM) | 0.063 | 0.0625 | 0.13 (≈ 0.372 µM) | antifungal MICc ([4]; in combination with ZOL): 2; antifungal MICc ([5]; in combination with 10-ZOL): 2; MIC / MEC [10]: 4 µg/mL (≈ 11.5 µM); antifungal MICc ([11]; in combination with ZOL): 8; antifungal MICc ([12]; in combination with ZOL): 0.5; MIC / MEC [13]: 8 µg/mL (≈ 22.9 µM); MIC / MEC [15]: 0.03 µg/mL (≈ 0.0859 µM); MIC / MEC [17]: 0.25 µg/mL (≈ 0.716 µM); MIC / MEC [19]: 2 µg/mL (≈ 5.73 µM); antifungal MICc ([21]; in combination with 10-ZOL): 0.063; antifungal MICc ([21]; in combination with ZOL): 0.03125; antifungal MICc ([22]; in combination with 10-ZOL): 1; antifungal MICc ([22]; in combination with ZOL): 4
